Laboratory results published in the NIST ThermoML archive (doi:10.1007/s10765-011-1149-x).

Assay: xn = mol fraction of the nth substance listed
Conditions: 101 kPa, Liquid, Vibrating tube method

Cc1cc(C)nc(C)c1 [2,4,6-trimethylpyridine] + CO
Conditions	mass density [kg/m3]
276.15 K, x1 = 0.0204	816.99
276.15 K, x1 = 0.0511	830.47
276.15 K, x1 = 0.0997	848.99
276.15 K, x1 = 0.194	875.69
276.15 K, x1 = 0.2957	895.63
276.15 K, x1 = 0.3884	907.79
276.15 K, x1 = 0.489	916.36
276.15 K, x1 = 0.5852	921.51
276.15 K, x1 = 0.6949	925.01
276.15 K, x1 = 0.7971	926.99
276.15 K, x1 = 0.8889	928.16
276.15 K, x1 = 1	928.45
277.15 K, x1 = 0.0204	816.06
277.15 K, x1 = 0.0511	829.54
277.15 K, x1 = 0.0997	848.07
277.15 K, x1 = 0.194	874.77
277.15 K, x1 = 0.2957	894.71
277.15 K, x1 = 0.3884	906.88
277.15 K, x1 = 0.489	915.47
277.15 K, x1 = 0.5852	920.64
277.15 K, x1 = 0.6949	924.15
277.15 K, x1 = 0.7971	926.14
277.15 K, x1 = 0.8889	927.31
277.15 K, x1 = 1	927.61
283.14 K, x1 = 0.2957	889.2
283.14 K, x1 = 0.3884	901.42
283.14 K, x1 = 0.5852	915.35
283.14 K, x1 = 0.7971	921.01
283.15 K, x1 = 0.0204	810.47
283.15 K, x1 = 0.0511	823.96
283.15 K, x1 = 0.0997	842.5
283.15 K, x1 = 0.194	869.23
283.15 K, x1 = 0.489	910.1
283.15 K, x1 = 0.6949	918.95
283.15 K, x1 = 0.8889	922.22
283.15 K, x1 = 1	922.54
288.15 K, x1 = 0.0204	805.79
288.15 K, x1 = 0.0511	819.3
288.15 K, x1 = 0.0997	837.86
288.15 K, x1 = 0.194	864.59
288.15 K, x1 = 0.2957	884.59
288.15 K, x1 = 0.3884	896.86
288.15 K, x1 = 0.489	905.6
288.15 K, x1 = 0.5852	910.93
288.15 K, x1 = 0.6949	914.61
288.15 K, x1 = 0.7971	916.72
288.15 K, x1 = 0.8889	917.96
288.15 K, x1 = 1	918.32
293.14 K, x1 = 0.0997	833.2
293.14 K, x1 = 1	914.08
293.15 K, x1 = 0.0204	801.11
293.15 K, x1 = 0.0511	814.63
293.15 K, x1 = 0.194	859.94
293.15 K, x1 = 0.2957	879.97
293.15 K, x1 = 0.3884	892.28
293.15 K, x1 = 0.489	901.1
293.15 K, x1 = 0.5852	906.5
293.15 K, x1 = 0.6949	910.25
293.15 K, x1 = 0.7971	912.41
293.15 K, x1 = 0.8889	913.69
298.14 K, x1 = 0.0511	809.94
298.14 K, x1 = 0.6949	905.88
298.14 K, x1 = 0.8889	909.41
298.15 K, x1 = 0.0204	796.41
298.15 K, x1 = 0.0997	828.52
298.15 K, x1 = 0.194	855.28
298.15 K, x1 = 0.2957	875.33
298.15 K, x1 = 0.3884	887.69
298.15 K, x1 = 0.489	896.57
298.15 K, x1 = 0.5852	902.05
298.15 K, x1 = 0.7971	908.1
298.15 K, x1 = 1	909.84
303.14 K, x1 = 0.7971	903.77
303.14 K, x1 = 0.8889	905.12
303.15 K, x1 = 0.0204	791.7
303.15 K, x1 = 0.0511	805.24
303.15 K, x1 = 0.0997	823.83
303.15 K, x1 = 0.194	850.6
303.15 K, x1 = 0.2957	870.67
303.15 K, x1 = 0.3884	883.08
303.15 K, x1 = 0.489	892.04
303.15 K, x1 = 0.5852	897.58
303.15 K, x1 = 0.6949	901.49
303.15 K, x1 = 1	905.58
308.14 K, x1 = 0.0997	819.11
308.14 K, x1 = 0.194	845.89
308.14 K, x1 = 0.3884	878.45
308.14 K, x1 = 0.489	887.48
308.14 K, x1 = 0.5852	893.1
308.14 K, x1 = 0.6949	897.08
308.14 K, x1 = 0.7971	899.42
308.15 K, x1 = 0.0204	786.96
308.15 K, x1 = 0.0511	800.51
308.15 K, x1 = 0.2957	865.99
308.15 K, x1 = 0.8889	900.82
308.15 K, x1 = 1	901.31
313.14 K, x1 = 0.0204	782.2
313.14 K, x1 = 0.0511	795.75
313.14 K, x1 = 0.0997	814.36
313.14 K, x1 = 0.489	882.9
313.14 K, x1 = 0.6949	892.65
313.15 K, x1 = 0.194	841.15
313.15 K, x1 = 0.2957	861.28
313.15 K, x1 = 0.3884	873.79
313.15 K, x1 = 0.5852	888.59
313.15 K, x1 = 0.7971	895.05
313.15 K, x1 = 0.8889	896.49
313.15 K, x1 = 1	897.03

Cc1cc(C)nc(C)c1 [2,4,6-trimethylpyridine] + OCCO
Conditions	mass density [kg/m3]
276.15 K, x1 = 0.0227	1116.64
276.15 K, x1 = 0.0509	1106.81
276.15 K, x1 = 0.1024	1090.72
276.15 K, x1 = 0.1996	1065.35
276.15 K, x1 = 0.2983	1043.61
276.15 K, x1 = 0.4014	1024.29
276.15 K, x1 = 0.4958	1008.47
276.15 K, x1 = 0.5984	991.05
276.15 K, x1 = 0.6974	975.68
276.15 K, x1 = 0.7927	959.81
276.15 K, x1 = 0.8896	944.84
277.15 K, x1 = 0.0227	1115.94
277.15 K, x1 = 0.0509	1106.1
277.15 K, x1 = 0.1996	1064.61
277.15 K, x1 = 0.2983	1042.81
277.15 K, x1 = 0.4014	1023.47
277.15 K, x1 = 0.4958	1007.63
277.15 K, x1 = 0.5984	990.18
277.15 K, x1 = 0.6974	974.81
277.15 K, x1 = 0.7927	958.95
277.15 K, x1 = 0.8896	944
277.16 K, x1 = 0.1024	1090
283.15 K, x1 = 0.0227	1111.72
283.15 K, x1 = 0.0509	1101.82
283.15 K, x1 = 0.1996	1060.1
283.15 K, x1 = 0.2983	1038.02
283.15 K, x1 = 0.4014	1018.5
283.15 K, x1 = 0.5984	985
283.15 K, x1 = 0.7927	953.81
283.15 K, x1 = 0.8896	938.89
283.16 K, x1 = 0.1024	1085.61
283.16 K, x1 = 0.4958	1002.53
283.16 K, x1 = 0.6974	969.63
288.15 K, x1 = 0.0227	1108.21
288.15 K, x1 = 0.0509	1098.26
288.15 K, x1 = 0.1024	1081.94
288.15 K, x1 = 0.1996	1056.23
288.15 K, x1 = 0.2983	1034.02
288.15 K, x1 = 0.4014	1014.34
288.15 K, x1 = 0.4958	998.27
288.15 K, x1 = 0.5984	980.68
288.15 K, x1 = 0.6974	965.31
288.15 K, x1 = 0.7927	949.52
288.15 K, x1 = 0.8896	934.64
293.14 K, x1 = 0.1024	1078.26
293.15 K, x1 = 0.0227	1104.68
293.15 K, x1 = 0.0509	1094.67
293.15 K, x1 = 0.1996	1052.33
293.15 K, x1 = 0.2983	1029.98
293.15 K, x1 = 0.4014	1010.15
293.15 K, x1 = 0.4958	993.97
293.15 K, x1 = 0.5984	976.33
293.15 K, x1 = 0.6974	960.96
293.15 K, x1 = 0.7927	945.2
293.15 K, x1 = 0.8896	930.36
298.14 K, x1 = 0.0227	1101.13
298.14 K, x1 = 0.0509	1091.07
298.14 K, x1 = 0.1024	1074.55
298.14 K, x1 = 0.2983	1025.93
298.14 K, x1 = 0.4958	989.66
298.14 K, x1 = 0.8896	926.07
298.15 K, x1 = 0.1996	1048.43
298.15 K, x1 = 0.4014	1005.94
298.15 K, x1 = 0.5984	971.96
298.15 K, x1 = 0.6974	956.59
298.15 K, x1 = 0.7927	940.86
303.15 K, x1 = 0.0227	1097.58
303.15 K, x1 = 0.0509	1087.45
303.15 K, x1 = 0.1024	1070.84
303.15 K, x1 = 0.1996	1044.52
303.15 K, x1 = 0.2983	1021.84
303.15 K, x1 = 0.4014	1001.71
303.15 K, x1 = 0.4958	985.33
303.15 K, x1 = 0.5984	967.57
303.15 K, x1 = 0.6974	952.2
303.15 K, x1 = 0.7927	936.51
303.15 K, x1 = 0.8896	921.76
308.14 K, x1 = 0.4014	997.46
308.14 K, x1 = 0.5984	963.16
308.15 K, x1 = 0.0227	1094.01
308.15 K, x1 = 0.0509	1083.83
308.15 K, x1 = 0.1024	1067.1
308.15 K, x1 = 0.1996	1040.64
308.15 K, x1 = 0.2983	1017.74
308.15 K, x1 = 0.4958	980.98
308.15 K, x1 = 0.6974	947.78
308.15 K, x1 = 0.7927	932.13
308.15 K, x1 = 0.8896	917.43
313.14 K, x1 = 0.1024	1063.34
313.14 K, x1 = 0.1996	1036.74
313.14 K, x1 = 0.2983	1013.62
313.14 K, x1 = 0.4014	993.19
313.14 K, x1 = 0.4958	976.61
313.14 K, x1 = 0.5984	958.73
313.15 K, x1 = 0.0227	1090.43
313.15 K, x1 = 0.0509	1080.18
313.15 K, x1 = 0.6974	943.35
313.15 K, x1 = 0.7927	927.74
313.15 K, x1 = 0.8896	913.09
